Experimental data published in patent publication US20120219615A1, “Therapeutic Use of a TLR Agonist and Combination Therapy” (The Trustees of the University of Pennsylvania, priority 2010, published 2012).

Test system: G-CSF, MCP-1, MIP-1β, TNFα
Test: Phase I clinical study: pharmacodynamic response, plasma immune mediators (MAP)
Type: in vivo
Conditions: human, s.c., first dose
Procedure: Study Procedures: VTX-2337 was administered weekly via subcutaneous injection on Days 1, 8, and 15 of a 28-day dosing cycle for two cycles. Using a modified Fibonacci dose-escalation scheme, successive cohorts received doses ranging from 0.1 mg/m^2 to 3.9 mg/m^2 of VTX-2337. Plasma samples were collected for pharmacokinetic analysis after the first dose of the first treatment cycle and for pharmacodynamic analyses after the first dose of the first and second treatment cycles.
To evaluate the pharmacodynamic (PD) response to VTX-2337, blood was collected at 0, 4, 8, 24 hours after subcutaneous administration of the first dose of the first cycle of VTX-2337. Plasma levels of immune mediators were quantified using the human multiple analyte panel (MAP), version 1.8 (Rules Based Medicine). […] Levels of mediators in plasma collected from 9 healthy volunteers are shown for comparison to the oncology population. […]

CCCN(CCC)C(=O)C1=Cc2ccc(-c3ccc(C(=O)N4CCCC4)cc3)cc2N=C(N)C1 [VTX-2337, 2-amino-N,N-dipropyl-8-(4-(pyrrolidine-1-carbonyl)phenyl)-3H-benzo[b]azepine-4-carboxamide]
G-CSF plasma level (Cohort 5 (1.3 mg/m^2), 0 Hr): 5.0 ± 0.3 pg/mL | MCP-1 plasma level (Cohort 5 (1.3 mg/m^2), 0 Hr): 227 ± 79.8 pg/mL | MIP-1β plasma level (Cohort 5 (1.3 mg/m^2), 0 Hr): 182 ± 36.9 pg/mL | TNFα plasma level (Cohort 5 (1.3 mg/m^2), 0 Hr): 9.3 ± 4.1 pg/mL | G-CSF plasma level (Cohort 5 (1.3 mg/m^2), 4 Hr): 20.5 ± 24.7 pg/mL | MCP-1 plasma level (Cohort 5 (1.3 mg/m^2), 4 Hr): 911 ± 951 pg/mL | MIP-1β plasma level (Cohort 5 (1.3 mg/m^2), 4 Hr): 543 ± 477 pg/mL | TNFα plasma level (Cohort 5 (1.3 mg/m^2), 4 Hr): 14.9 ± 12.5 pg/mL | G-CSF plasma level (Cohort 5 (1.3 mg/m^2), 8 Hr): 196 ± 145 pg/mL | MCP-1 plasma level (Cohort 5 (1.3 mg/m^2), 8 Hr): 954 ± 638 pg/mL | MIP-1β plasma level (Cohort 5 (1.3 mg/m^2), 8 Hr): 688 ± 635 pg/mL | TNFα plasma level (Cohort 5 (1.3 mg/m^2), 8 Hr): 21.6 ± 13.3 pg/mL | G-CSF plasma level (Cohort 5 (1.3 mg/m^2), 24 Hr): 30.8 ± 10.4 pg/mL | MCP-1 plasma level (Cohort 5 (1.3 mg/m^2), 24 Hr): 246 ± 158 pg/mL | MIP-1β plasma level (Cohort 5 (1.3 mg/m^2), 24 Hr): 228 ± 70.1 pg/mL | TNFα plasma level (Cohort 5 (1.3 mg/m^2), 24 Hr): 15.3 ± 4.2 pg/mL | G-CSF plasma level (Cohort 6 (2.0 mg/m^2), 0 Hr): 9.9 ± 8.2 pg/mL | MCP-1 plasma level (Cohort 6 (2.0 mg/m^2), 0 Hr): 265 ± 161 pg/mL | MIP-1β plasma level (Cohort 6 (2.0 mg/m^2), 0 Hr): 136 ± 28.3 pg/mL | TNFα plasma level (Cohort 6 (2.0 mg/m^2), 0 Hr): 4.4 ± 1.6 pg/mL | G-CSF plasma level (Cohort 6 (2.0 mg/m^2), 4 Hr): 14.0 ± 4.3 pg/mL | MCP-1 plasma level (Cohort 6 (2.0 mg/m^2), 4 Hr): 247 ± 80.5 pg/mL | MIP-1β plasma level (Cohort 6 (2.0 mg/m^2), 4 Hr): 196 ± 62.5 pg/mL | TNFα plasma level (Cohort 6 (2.0 mg/m^2), 4 Hr): 8.4 ± 1.5 pg/mL | G-CSF plasma level (Cohort 6 (2.0 mg/m^2), 8 Hr): 134 ± 149 pg/mL | MCP-1 plasma level (Cohort 6 (2.0 mg/m^2), 8 Hr): 722 ± 224 pg/mL | MIP-1β plasma level (Cohort 6 (2.0 mg/m^2), 8 Hr): 289 ± 111 pg/mL | TNFα plasma level (Cohort 6 (2.0 mg/m^2), 8 Hr): 10.0 ± 2.3 pg/mL | G-CSF plasma level (Cohort 6 (2.0 mg/m^2), 24 Hr): 42.2 ± 31.6 pg/mL | MCP-1 plasma level (Cohort 6 (2.0 mg/m^2), 24 Hr): 320 ± 244 pg/mL | MIP-1β plasma level (Cohort 6 (2.0 mg/m^2), 24 Hr): 155 ± 26 pg/mL | TNFα plasma level (Cohort 6 (2.0 mg/m^2), 24 Hr): 10.0 ± 0.2 pg/mL | G-CSF plasma level (Cohort 7 (2.8 mg/m^2), 0 Hr): 7.4 ± 3.2 pg/mL | MCP-1 plasma level (Cohort 7 (2.8 mg/m^2), 0 Hr): 250 ± 110 pg/mL | MIP-1β plasma level (Cohort 7 (2.8 mg/m^2), 0 Hr): 136 ± 22 pg/mL | TNFα plasma level (Cohort 7 (2.8 mg/m^2), 0 Hr): 6.1 ± 1.8 pg/mL | G-CSF plasma level (Cohort 7 (2.8 mg/m^2), 4 Hr): 12.4 ± 2.4 pg/mL | MCP-1 plasma level (Cohort 7 (2.8 mg/m^2), 4 Hr): 719 ± 433 pg/mL | MIP-1β plasma level (Cohort 7 (2.8 mg/m^2), 4 Hr): 517 ± 305 pg/mL | TNFα plasma level (Cohort 7 (2.8 mg/m^2), 4 Hr): 10.9 ± 1.4 pg/mL | G-CSF plasma level (Cohort 7 (2.8 mg/m^2), 8 Hr): 553 ± 246 pg/mL | MCP-1 plasma level (Cohort 7 (2.8 mg/m^2), 8 Hr): 2043 ± 760 pg/mL | MIP-1β plasma level (Cohort 7 (2.8 mg/m^2), 8 Hr): 646 ± 216 pg/mL | TNFα plasma level (Cohort 7 (2.8 mg/m^2), 8 Hr): 12.8 ± 2.5 pg/mL | G-CSF plasma level (Cohort 7 (2.8 mg/m^2), 24 Hr): 59.0 ± 31.7 pg/mL | MCP-1 plasma level (Cohort 7 (2.8 mg/m^2), 24 Hr): 273 ± 109 pg/mL | MIP-1β plasma level (Cohort 7 (2.8 mg/m^2), 24 Hr): 152 ± 82 pg/mL | TNFα plasma level (Cohort 7 (2.8 mg/m^2), 24 Hr): 8.8 ± 4.1 pg/mL | G-CSF plasma level (Cohort 8 (3.9 mg/m^2), 0 Hr): 29.1 ± 55.8 pg/mL | MCP-1 plasma level (Cohort 8 (3.9 mg/m^2), 0 Hr): 249 ± 56 pg/mL | MIP-1β plasma level (Cohort 8 (3.9 mg/m^2), 0 Hr): 236 ± 111 pg/mL | TNFα plasma level (Cohort 8 (3.9 mg/m^2), 0 Hr): 14.9 ± 9.1 pg/mL | G-CSF plasma level (Cohort 8 (3.9 mg/m^2), 4 Hr): 83.3 ± 104.7 pg/mL | MCP-1 plasma level (Cohort 8 (3.9 mg/m^2), 4 Hr): 5227 ± 8362 pg/mL | MIP-1β plasma level (Cohort 8 (3.9 mg/m^2), 4 Hr): 7793 ± 10824 pg/mL | TNFα plasma level (Cohort 8 (3.9 mg/m^2), 4 Hr): 56.9 ± 48.3 pg/mL | G-CSF plasma level (Cohort 8 (3.9 mg/m^2), 8 Hr): 2151 ± 3586 pg/mL | MCP-1 plasma level (Cohort 8 (3.9 mg/m^2), 8 Hr): 8128 ± 10588 pg/mL | MIP-1β plasma level (Cohort 8 (3.9 mg/m^2), 8 Hr): 2259 ± 2456 pg/mL | TNFα plasma level (Cohort 8 (3.9 mg/m^2), 8 Hr): 42.7 ± 27.4 pg/mL | G-CSF plasma level (Cohort 8 (3.9 mg/m^2), 24 Hr): 141.4 ± 228.8 pg/mL | MCP-1 plasma level (Cohort 8 (3.9 mg/m^2), 24 Hr): 532 ± 571 pg/mL | MIP-1β plasma level (Cohort 8 (3.9 mg/m^2), 24 Hr): 276 ± 108 pg/mL | TNFα plasma level (Cohort 8 (3.9 mg/m^2), 24 Hr): 24.2 ± 9.4 pg/mL
